Reference: patent US20160168126A1, “CHEMICAL COMPOUNDS” (SYNGENTA LIMITED, priority 2013, published 2016)

System: a variety of test species
Test: Post-emergence herbicidal activity (glasshouse, sprayed 8 days after sowing, evaluated after 13 days)
Format: in vivo
Details: scale 0-5
Protocol: Seeds of a variety of test species were sown in standard soil in pots. After 8 days cultivation (post-emergence) under controlled conditions in a glasshouse (at 24/16° C., day/night; 14 hours light; 65% humidity), the plants were sprayed with an aqueous spray solution derived from the formulation of the technical active ingredient in acetone/water (50:50) solution containing 0.5% Tween 20 (polyoxyethelyene sorbitan monolaurate, CAS RN 9005-64-5). The test plants were then grown in a glasshouse under controlled conditions (at 24/16° C., day/night; 14 hours light; 65% humidity) and watered twice daily. After 13 days, the test was evaluated (5=total damage to plant; 0=no damage to plant).

SMILES: CCC(C)(OC)c1cc(N2C(=O)C(C)=C(Cl)C2O)nn1C (mixture of isomers) [Compound B13]
- Post-emergence herbicidal damage score, ABUTH (Abutilon theophrasti) (1000 g/ha): 5
- Post-emergence herbicidal damage score, ALOMY (Alopecurus myosuroides) (1000 g/ha): 3
- Post-emergence herbicidal damage score, AMARE (Amaranthus retroflexus) (1000 g/ha): 3
- Post-emergence herbicidal damage score, ECHCG (Echinochloa crus-galli) (1000 g/ha): 2
- Post-emergence herbicidal damage score, SETFA (Setaria faberi) (1000 g/ha): 4
- Post-emergence herbicidal damage score, ZEAMX (Zea mays) (1000 g/ha): 0

SMILES: CCOC(C)(CC)c1cc(N2C(=O)C(C)=C(Cl)C2O)nn1C (mixture of isomers) [Compound B14]
- Post-emergence herbicidal damage score, ABUTH (Abutilon theophrasti) (1000 g/ha): 5
- Post-emergence herbicidal damage score, ALOMY (Alopecurus myosuroides) (1000 g/ha): 3
- Post-emergence herbicidal damage score, AMARE (Amaranthus retroflexus) (1000 g/ha): 4
- Post-emergence herbicidal damage score, ECHCG (Echinochloa crus-galli) (1000 g/ha): 4
- Post-emergence herbicidal damage score, SETFA (Setaria faberi) (1000 g/ha): 4
- Post-emergence herbicidal damage score, ZEAMX (Zea mays) (1000 g/ha): 1

SMILES: CCC(C)c1cc(N2C(=O)C(C)=C(Cl)C2O)nn1C (mixture of isomers) [Compound B15]
- Post-emergence herbicidal damage score, ABUTH (Abutilon theophrasti) (1000 g/ha): 5
- Post-emergence herbicidal damage score, ALOMY (Alopecurus myosuroides) (1000 g/ha): 4
- Post-emergence herbicidal damage score, AMARE (Amaranthus retroflexus) (1000 g/ha): 5
- Post-emergence herbicidal damage score, ECHCG (Echinochloa crus-galli) (1000 g/ha): 5
- Post-emergence herbicidal damage score, SETFA (Setaria faberi) (1000 g/ha): 5
- Post-emergence herbicidal damage score, ZEAMX (Zea mays) (1000 g/ha): 2

SMILES: CCOC(c1cc(N2C(=O)C(C)=C(Cl)C2O)nn1C)C(C)(C)C (mixture of isomers) [Compound B16]
- Post-emergence herbicidal damage score, ABUTH (Abutilon theophrasti) (1000 g/ha): 0
- Post-emergence herbicidal damage score, ALOMY (Alopecurus myosuroides) (1000 g/ha): 0
- Post-emergence herbicidal damage score, AMARE (Amaranthus retroflexus) (1000 g/ha): 0
- Post-emergence herbicidal damage score, ECHCG (Echinochloa crus-galli) (1000 g/ha): 0
- Post-emergence herbicidal damage score, SETFA (Setaria faberi) (1000 g/ha): 0
- Post-emergence herbicidal damage score, ZEAMX (Zea mays) (1000 g/ha): 0

SMILES: CC1=C(Cl)C(O)N(c2cc(C(F)C(C)(C)C)n(C)n2)C1=O (mixture of isomers) [Compound B19]
- Post-emergence herbicidal damage score, ABUTH (Abutilon theophrasti) (1000 g/ha): 4
- Post-emergence herbicidal damage score, ALOMY (Alopecurus myosuroides) (1000 g/ha): 2
- Post-emergence herbicidal damage score, AMARE (Amaranthus retroflexus) (1000 g/ha): 4
- Post-emergence herbicidal damage score, ECHCG (Echinochloa crus-galli) (1000 g/ha): 3
- Post-emergence herbicidal damage score, SETFA (Setaria faberi) (1000 g/ha): 4
- Post-emergence herbicidal damage score, ZEAMX (Zea mays) (1000 g/ha): 0

SMILES: CC1=C(Cl)C(O)N(c2cc(C(C)C(F)(F)F)n(C)n2)C1=O (mixture of isomers) [Compound B21]
- Post-emergence herbicidal damage score, ABUTH (Abutilon theophrasti) (1000 g/ha): 4
- Post-emergence herbicidal damage score, ALOMY (Alopecurus myosuroides) (1000 g/ha): 5
- Post-emergence herbicidal damage score, AMARE (Amaranthus retroflexus) (1000 g/ha): 5
- Post-emergence herbicidal damage score, ECHCG (Echinochloa crus-galli) (1000 g/ha): 5
- Post-emergence herbicidal damage score, SETFA (Setaria faberi) (1000 g/ha): 5
- Post-emergence herbicidal damage score, ZEAMX (Zea mays) (1000 g/ha): 1

SMILES: CC1=C(Cl)C(O)N(c2cc(C(C)(F)C(C)(C)C)n(C)n2)C1=O (mixture of isomers) [Compound B22]
- Post-emergence herbicidal damage score, ABUTH (Abutilon theophrasti) (1000 g/ha): 1
- Post-emergence herbicidal damage score, ALOMY (Alopecurus myosuroides) (1000 g/ha): 1
- Post-emergence herbicidal damage score, AMARE (Amaranthus retroflexus) (1000 g/ha): 0
- Post-emergence herbicidal damage score, ECHCG (Echinochloa crus-galli) (1000 g/ha): 2
- Post-emergence herbicidal damage score, SETFA (Setaria faberi) (1000 g/ha): 3
- Post-emergence herbicidal damage score, ZEAMX (Zea mays) (1000 g/ha): 1

SMILES: CC1=C(Cl)C(O)N(c2cc3n(n2)CCC3C)C1=O (mixture of isomers) [Compound G1]
- Post-emergence herbicidal damage score, ABUTH (Abutilon theophrasti) (1000 g/ha): 5
- Post-emergence herbicidal damage score, ALOMY (Alopecurus myosuroides) (1000 g/ha): 4
- Post-emergence herbicidal damage score, AMARE (Amaranthus retroflexus) (1000 g/ha): 5
- Post-emergence herbicidal damage score, ECHCG (Echinochloa crus-galli) (1000 g/ha): 5
- Post-emergence herbicidal damage score, SETFA (Setaria faberi) (1000 g/ha): 4
- Post-emergence herbicidal damage score, ZEAMX (Zea mays) (1000 g/ha): 2

SMILES: CCC1CCn2nc(N3C(=O)C(C)=C(Cl)C3O)cc21 (mixture of isomers) [Compound G3]
- Post-emergence herbicidal damage score, ABUTH (Abutilon theophrasti) (1000 g/ha): 5
- Post-emergence herbicidal damage score, ALOMY (Alopecurus myosuroides) (1000 g/ha): 4
- Post-emergence herbicidal damage score, AMARE (Amaranthus retroflexus) (1000 g/ha): 5
- Post-emergence herbicidal damage score, ECHCG (Echinochloa crus-galli) (1000 g/ha): 4
- Post-emergence herbicidal damage score, SETFA (Setaria faberi) (1000 g/ha): 5
- Post-emergence herbicidal damage score, ZEAMX (Zea mays) (1000 g/ha): 2

SMILES: CCC1CCCn2nc(N3C(=O)C(C)=C(Cl)C3O)cc21 (mixture of isomers) [Compound G5]
- Post-emergence herbicidal damage score, ABUTH (Abutilon theophrasti) (1000 g/ha): 5
- Post-emergence herbicidal damage score, ALOMY (Alopecurus myosuroides) (1000 g/ha): 4
- Post-emergence herbicidal damage score, AMARE (Amaranthus retroflexus) (1000 g/ha): 5
- Post-emergence herbicidal damage score, ECHCG (Echinochloa crus-galli) (1000 g/ha): 4
- Post-emergence herbicidal damage score, SETFA (Setaria faberi) (1000 g/ha): 4
- Post-emergence herbicidal damage score, ZEAMX (Zea mays) (1000 g/ha): 0

SMILES: CC1=C(Cl)C(O)N(c2cc(C(C)(C)C)[nH]n2)C1=O (stereo not drawn) [Compound A1]
- Post-emergence herbicidal damage score, ABUTH (Abutilon theophrasti) (250 g/ha): 5
- Post-emergence herbicidal damage score, ALOMY (Alopecurus myosuroides) (250 g/ha): 4
- Post-emergence herbicidal damage score, AMARE (Amaranthus retroflexus) (250 g/ha): 2
- Post-emergence herbicidal damage score, ECHCG (Echinochloa crus-galli) (250 g/ha): 5
- Post-emergence herbicidal damage score, SETFA (Setaria faberi) (250 g/ha): 4
- Post-emergence herbicidal damage score, ZEAMX (Zea mays) (250 g/ha): 0

SMILES: CC1=C(Cl)C(O)N(c2cc(C(F)(F)F)[nH]n2)C1=O (stereo not drawn) [Compound A2]
- Post-emergence herbicidal damage score, ABUTH (Abutilon theophrasti) (1000 g/ha): 4
- Post-emergence herbicidal damage score, ALOMY (Alopecurus myosuroides) (1000 g/ha): 1
- Post-emergence herbicidal damage score, AMARE (Amaranthus retroflexus) (1000 g/ha): 1
- Post-emergence herbicidal damage score, ECHCG (Echinochloa crus-galli) (1000 g/ha): 2
- Post-emergence herbicidal damage score, SETFA (Setaria faberi) (1000 g/ha): 2
- Post-emergence herbicidal damage score, ZEAMX (Zea mays) (1000 g/ha): 0

SMILES: CC1=C(Cl)C(O)N(c2cc(C(C)C)[nH]n2)C1=O (stereo not drawn) [Compound A3]
- Post-emergence herbicidal damage score, ABUTH (Abutilon theophrasti) (250 g/ha): 5
- Post-emergence herbicidal damage score, ALOMY (Alopecurus myosuroides) (250 g/ha): 5
- Post-emergence herbicidal damage score, AMARE (Amaranthus retroflexus) (250 g/ha): 5
- Post-emergence herbicidal damage score, ECHCG (Echinochloa crus-galli) (250 g/ha): 5
- Post-emergence herbicidal damage score, SETFA (Setaria faberi) (250 g/ha): 4
- Post-emergence herbicidal damage score, ZEAMX (Zea mays) (250 g/ha): 1

SMILES: CC1=C(Cl)C(O)N(c2cc(C3CC3)[nH]n2)C1=O (stereo not drawn) [Compound A4]
- Post-emergence herbicidal damage score, ABUTH (Abutilon theophrasti) (1000 g/ha): 5
- Post-emergence herbicidal damage score, ALOMY (Alopecurus myosuroides) (1000 g/ha): 4
- Post-emergence herbicidal damage score, AMARE (Amaranthus retroflexus) (1000 g/ha): 4
- Post-emergence herbicidal damage score, ECHCG (Echinochloa crus-galli) (1000 g/ha): 5
- Post-emergence herbicidal damage score, SETFA (Setaria faberi) (1000 g/ha): 4
- Post-emergence herbicidal damage score, ZEAMX (Zea mays) (1000 g/ha): 1

SMILES: CC1=C(Cl)C(O)N(c2cc(C)[nH]n2)C1=O (stereo not drawn) [Compound A5]
- Post-emergence herbicidal damage score, ABUTH (Abutilon theophrasti) (1000 g/ha): 5
- Post-emergence herbicidal damage score, ALOMY (Alopecurus myosuroides) (1000 g/ha): 4
- Post-emergence herbicidal damage score, AMARE (Amaranthus retroflexus) (1000 g/ha): 3
- Post-emergence herbicidal damage score, ECHCG (Echinochloa crus-galli) (1000 g/ha): 2
- Post-emergence herbicidal damage score, SETFA (Setaria faberi) (1000 g/ha): 4
- Post-emergence herbicidal damage score, ZEAMX (Zea mays) (1000 g/ha): 2

SMILES: CC1=C(Cl)C(O)N(c2cc(C(F)(F)C(F)(F)F)[nH]n2)C1=O (stereo not drawn) [Compound A6]
- Post-emergence herbicidal damage score, ABUTH (Abutilon theophrasti) (1000 g/ha): 2
- Post-emergence herbicidal damage score, ALOMY (Alopecurus myosuroides) (1000 g/ha): 1
- Post-emergence herbicidal damage score, AMARE (Amaranthus retroflexus) (1000 g/ha): 3
- Post-emergence herbicidal damage score, ECHCG (Echinochloa crus-galli) (1000 g/ha): 2
- Post-emergence herbicidal damage score, SETFA (Setaria faberi) (1000 g/ha): 2
- Post-emergence herbicidal damage score, ZEAMX (Zea mays) (1000 g/ha): 1

SMILES: CCC(C)(CC)c1cc(N2C(=O)C(C)=C(Cl)C2O)n[nH]1 (stereo not drawn) [Compound A7]
- Post-emergence herbicidal damage score, ABUTH (Abutilon theophrasti) (1000 g/ha): 5
- Post-emergence herbicidal damage score, ALOMY (Alopecurus myosuroides) (1000 g/ha): 3
- Post-emergence herbicidal damage score, AMARE (Amaranthus retroflexus) (1000 g/ha): 5
- Post-emergence herbicidal damage score, ECHCG (Echinochloa crus-galli) (1000 g/ha): 5
- Post-emergence herbicidal damage score, SETFA (Setaria faberi) (1000 g/ha): 5
- Post-emergence herbicidal damage score, ZEAMX (Zea mays) (1000 g/ha): 1

SMILES: CC1=C(Cl)C(O)N(c2cc(C)n(C)n2)C1=O (stereo not drawn) [Compound B1]
- Post-emergence herbicidal damage score, ABUTH (Abutilon theophrasti) (1000 g/ha): 5
- Post-emergence herbicidal damage score, ALOMY (Alopecurus myosuroides) (1000 g/ha): 2
- Post-emergence herbicidal damage score, AMARE (Amaranthus retroflexus) (1000 g/ha): 5
- Post-emergence herbicidal damage score, ECHCG (Echinochloa crus-galli) (1000 g/ha): 2
- Post-emergence herbicidal damage score, SETFA (Setaria faberi) (1000 g/ha): 1
- Post-emergence herbicidal damage score, ZEAMX (Zea mays) (1000 g/ha): 1
